Inhibition and Activity data for one molecule are collected here from ChEMBL document CHEMBL6096681, “Examining Arginase-1 Trimerization Uncovers a Promising Allosteric Site for Inhibition” (J Med Chem, 2025).

Assay [1] addresses T1, Arginase-1 (Homo sapiens) (UniProt P05089).
T1 sequence (whole entry): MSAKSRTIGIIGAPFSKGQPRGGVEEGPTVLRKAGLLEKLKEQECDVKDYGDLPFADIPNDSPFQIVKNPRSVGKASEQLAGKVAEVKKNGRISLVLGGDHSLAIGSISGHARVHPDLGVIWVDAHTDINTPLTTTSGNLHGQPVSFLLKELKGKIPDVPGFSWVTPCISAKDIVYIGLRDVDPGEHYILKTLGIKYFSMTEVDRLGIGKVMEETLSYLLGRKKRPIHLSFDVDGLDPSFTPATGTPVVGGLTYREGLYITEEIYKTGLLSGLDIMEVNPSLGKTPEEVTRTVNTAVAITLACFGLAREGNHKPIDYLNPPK
The assay can be described thus: Inhibition of full length N-terminal his6-tagged human ARG-1 expressed in Escherichia coli BL21 (DE3) cells at 10 mM incubated for 24 hrs relative to control.

The target in assay [2] is T1, Arginase-1 (Homo sapiens). The assay can be described thus: Inhibition of N-terminal his6-tagged truncated human ARG-1 expressed in Escherichia coli BL21 (DE3) cells at 10 mM incubated for 24 hrs.
For assay [3], the target named is T1, Arginase-1 (Homo sapiens). Nature of the assay: Inhibition of full length N-terminal his6-tagged human ARG-1 expressed in Escherichia coli BL21 (DE3) cells upto 20 mM incubated for 24 hrs by coomassie blue staining based SDS/PAGE analysis.
Assay [4] addresses T1, Arginase-1 (Homo sapiens). Nature of the assay: Binding affinity to full length N-terminal his6-tagged human ARG-1 expressed in Escherichia coli BL21 (DE3) cells assessed as thermal stabilization at 0.625 to 20 mM measured for 24 hrs by nanoDSF analysis. Conditions: dose 0.625-20 mM. In general terms: DSF heats the sample and reads unfolding from a dye or from intrinsic fluorescence.

Assay [5] addresses T1, Arginase-1 (Homo sapiens). Nature of the assay: Binding affinity to N-terminal his6-tagged truncated human ARG-1 expressed in Escherichia coli BL21 (DE3) cells assessed as thermal stabilization at 20 mM measured for 24 hrs by nanoDSF analysis.
The species named for assay [6] is Homo sapiens. The assay can be described thus: Inhibition of full length N-terminal his6-tagged human ARG-1 R205A mutant expressed in Escherichia coli BL21 (DE3) cells by mass spectrometry analysis.

The inhibition is the share of the control response that was lost under treatment.

Active and inactive are the calls of the source. No cut-off for these calls is given here.

In assay [1], `O=CC(=O)c1ccccc1` displayed an inhibition of 30%. The inhibition result in assay [2], in assay [3] and in assay [6] was “Active” throughout. The result in assay [4] and in assay [5] was Active.
